Results taken from patent US20210290597A1, “METHOD OF TREATING A CONDITION ASSOCIATED WITH NEURODEGENERATION USING INHIBITORS OF OAT3” (Neuropore Therapies, Inc., priority 2018, published 2021).

Key:
[1] = tested on: microtubule-associated protein 1A/1B-light chain 3 (LC3); test: LC3 immunolabeling, L61 ASYN transgenic mice, 1 month study; assay type: in vivo; conditions: 1, 5 or 10 mg/kg per day i.p.
Description: Multiple in vivo administration studies of Compound 1 were carried out in the Line 61 (L61) mThy1-alpha-synuclein transgenic mouse model of Parkinson's disease (PD). The mThy1-alpha-synuclein transgenic mouse model overexpresses wild-type human ASYN under the Thy-1 promoter (commonly referred to as Line 61 transgenic mice; Rockenstein et al., 2002). This transgenic mouse develops extensive accumulation of alpha-synuclein (ASYN) in areas relevant to PD (Rockenstein et al., 2002; Chesselet et al., 2012; Games et al., 2013), neurodegeneration including dopaminergic neurodegeneration, reduced dopamine (DA) and TH loss in the striatum (Masliah et al., 2000; Lam et al., 2011), and motor deficits (Fleming et al., 2004). […]
Alpha-synuclein (ASYN) is a neuronal protein whose dysregulation has been implicated in the pathogenesis of PD. The effects of Compound 1 on alpha-synuclein aggregation were assessed in both L61 ASYN transgenic and non-transgenic mice in a 1 month administration study. […] At the end of one month, the mice were sacrificed, and immunohistochemical (IHC) detection of total alpha-synuclein deposits, insoluble alpha-synuclein deposits (PK+resistant), microtubule-associated protein 1A/1B-light chain 3 (LC3), and monomeric alpha-synuclein levels were assessed in the harvested brain tissues.

[2] = tested on: Translocator Protein (18 kDa) (TSPO); test: TSPO immunofluorescence, L41 APP transgenic mice; assay type: in vivo; conditions: 5 mg/kg daily i.p.
Description: Neuroinflammation is associated with increased expression of the 18-kDa translocator protein (TSPO), which is present on the mitochondria of activated microglia, astroglia and macrophages (Crawshaw and Robertson 2017). The effects of Compound 1 on TSPO expression were assessed in both L41 APP transgenic and non-transgenic mice in a 1 month administration study. L41 APP transgenic mice (36 total mice, n=8-11 mice per treatment group) were injected (i.p.) daily with 5 mg/kg of Compound 1 or a vehicle control (5% DMSO+20% Cremphor EL+0.9% normal saline) for […]. Non-transgenic mice (18 total mice, n=8-11 mice per treatment group) were used as a control and were injected daily (i.p.) with 10 mg/kg of Compound 1 (data not shown) or a vehicle control (5% DMSO+20% Cremphor EL+0.9% normal saline) for 1 month. After 30 days, the mice were sacrificed, and immunofluoresence (IF) detection of TSPO were assessed in the harvested brain tissues.
The harvested brain tissues were drop fixed using 4% PFA and sectioned on a vibratome, and representative sections corresponding to the neuropil of cortex were assessed for TSPO with standard immunofluorescence (IF) staining.

[3] = biological target: T1, human transporter OATP1B1 (Homo sapiens, UniProt Q9Y6L6); test: In vitro ion transport assay 1, OATP1B1; assay type: cell-based; conditions: probe substrate 2 μM [3H]-estradiol-17β-D-glucuronide
T1 construct: expressed in transfected cells; host or cells: MDCK-II
T1 sequence (Q9Y6L6 1-691): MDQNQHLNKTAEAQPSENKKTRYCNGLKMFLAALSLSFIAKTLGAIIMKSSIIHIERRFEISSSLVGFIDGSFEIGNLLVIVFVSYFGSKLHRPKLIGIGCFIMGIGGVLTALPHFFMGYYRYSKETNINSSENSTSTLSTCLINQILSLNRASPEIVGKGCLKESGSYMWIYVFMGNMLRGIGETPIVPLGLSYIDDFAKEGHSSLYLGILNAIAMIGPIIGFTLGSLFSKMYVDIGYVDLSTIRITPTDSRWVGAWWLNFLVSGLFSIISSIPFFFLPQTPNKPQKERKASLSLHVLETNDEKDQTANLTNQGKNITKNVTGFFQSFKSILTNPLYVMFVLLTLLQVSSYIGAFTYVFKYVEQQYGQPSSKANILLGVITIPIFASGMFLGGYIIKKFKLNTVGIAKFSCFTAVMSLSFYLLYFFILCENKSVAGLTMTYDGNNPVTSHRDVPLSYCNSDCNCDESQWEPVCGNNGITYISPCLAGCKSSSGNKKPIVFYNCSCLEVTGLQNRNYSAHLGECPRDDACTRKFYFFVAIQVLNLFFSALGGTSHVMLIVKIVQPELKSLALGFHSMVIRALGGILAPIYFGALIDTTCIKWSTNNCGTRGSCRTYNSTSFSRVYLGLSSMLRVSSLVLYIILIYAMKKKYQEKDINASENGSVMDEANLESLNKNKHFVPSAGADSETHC
Description: Compound 1 was studied in the concentration range of 0.1-100 μM for its potency against transport mediated by various transporter proteins. [table]

Structure (SMILES): O=S(=O)(c1ccc(-n2cn[nH]c2=S)cc1)c1ccc(Cl)c(C(F)(F)F)c1 [Compound 1, 4-(4-((4-chloro-3-(trifluoromethyl)phenyl)sulfonyl)phenyl)-2,4-dihydro-3H-1,2,4-triazole-3-thione]
- levels of LC3 immunolabeling in cortex and striatum [1]: increased
- cortical TSPO level vs vehicle-treated Line 41 mice [2]: reduces the TSPO level in a statistically significant manner
- IC50 [3]: 14.6 µM
